Assay results taken from the kinase profiling compilation of Christmann-Franck et al. (2016).

Legend:
Assay in all cases: KINOMEscan competition binding
Settings in all cases: compound 10.0 µM
AAK1 (human) = AAK1 (human) (UniProt Q2M2I8)
ACVR1 (human) = ACVR1 (human) (UniProt Q04771)
AKT2 (human) = AKT2 (human) (UniProt P31751)
AKT3 (human) = AKT3 (human) (UniProt Q9Y243)
AURKC (human) = AURKC (human) (UniProt Q9UQB9)
BMPR1B (human) = BMPR1B (human) (UniProt O00238)
CAMK2A (human) = CAMK2A (human) (UniProt Q9UQM7)
CAMKK2 (human) = CAMKK2 (human) (UniProt Q96RR4)
CDK15 (human) = CDK15 (human) (UniProt Q96Q40)
CDK19 (human) = CDK19 (human) (UniProt Q9BWU1)
CLK2 (human) = CLK2 (human) (UniProt P49760)
EPHA6 (human) = EPHA6 (human) (UniProt Q9UF33)
EPHB4 (human) = EPHB4 (human) (UniProt P54760)
FGFR4 (human) = FGFR4 (human) (UniProt P22455)
GSK3A (human) = GSK3A (human) (UniProt P49840)
IKBKB (human) = IKBKB (human) (UniProt O14920)
LCK (human) = LCK (human) (UniProt P06239)
MAP3K7 (human) = MAP3K7 (human) (UniProt O43318)
MAP3K9 (human) = MAP3K9 (human) (UniProt P80192)
MAPK10 (human) = MAPK10 (human) (UniProt P53779)
MERTK (human) = MERTK (human) (UniProt Q12866)
MYLK4 (human) = MYLK4 (human) (UniProt Q86YV6)
MYO3A (human) = MYO3A (human) (UniProt Q8NEV4)
NEK2 (human) = NEK2 (human) (UniProt P51955)
NLK (human) = NLK (human) (UniProt Q9UBE8)
NUAK2 (human) = NUAK2 (human) (UniProt Q9H093)
PIM3 (human) = PIM3 (human) (UniProt Q86V86)
PIP5K1A (human) = PIP5K1A (human) (UniProt Q99755)
PKMYT1 (human) = PKMYT1 (human) (UniProt Q99640)
PTK2 (human) = PTK2 (human) (UniProt Q05397)
RPS6KA2 KD1 (human) = RPS6KA2 KD1 (human) (UniProt Q15349)
SIK1 (human) = SIK1 (human) (UniProt P57059)
STK24 (human) = STK24 (human) (UniProt Q9Y6E0)
STK32C (human) = STK32C (human) (UniProt Q86UX6)
STK35 (human) = STK35 (human) (UniProt Q8TDR2)
STK4 (human) = STK4 (human) (UniProt Q13043)
TAOK3 (human) = TAOK3 (human) (UniProt Q9H2K8)
TGFBR1 (human) = TGFBR1 (human) (UniProt P36897)
CSNK1G2 (human) = CSNK1G2 (human) (UniProt P78368)
FES (human) = FES (human) (UniProt P07332)

CLK2 (human), sequence (P49760 whole entry, looked up): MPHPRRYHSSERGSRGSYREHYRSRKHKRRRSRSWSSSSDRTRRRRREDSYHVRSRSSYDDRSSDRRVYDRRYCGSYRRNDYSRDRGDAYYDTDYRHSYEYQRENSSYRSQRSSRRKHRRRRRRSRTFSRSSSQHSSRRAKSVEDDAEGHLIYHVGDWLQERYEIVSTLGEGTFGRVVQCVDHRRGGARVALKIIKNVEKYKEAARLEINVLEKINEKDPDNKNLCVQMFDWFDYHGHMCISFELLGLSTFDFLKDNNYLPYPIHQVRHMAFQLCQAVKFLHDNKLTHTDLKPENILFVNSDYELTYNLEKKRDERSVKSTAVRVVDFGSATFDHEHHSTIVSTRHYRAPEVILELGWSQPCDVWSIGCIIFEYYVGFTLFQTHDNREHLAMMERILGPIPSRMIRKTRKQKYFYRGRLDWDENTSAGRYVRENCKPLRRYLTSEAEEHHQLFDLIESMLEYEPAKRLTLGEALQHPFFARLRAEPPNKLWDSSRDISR
STK32C (human), sequence (Q86UX6 whole entry, looked up): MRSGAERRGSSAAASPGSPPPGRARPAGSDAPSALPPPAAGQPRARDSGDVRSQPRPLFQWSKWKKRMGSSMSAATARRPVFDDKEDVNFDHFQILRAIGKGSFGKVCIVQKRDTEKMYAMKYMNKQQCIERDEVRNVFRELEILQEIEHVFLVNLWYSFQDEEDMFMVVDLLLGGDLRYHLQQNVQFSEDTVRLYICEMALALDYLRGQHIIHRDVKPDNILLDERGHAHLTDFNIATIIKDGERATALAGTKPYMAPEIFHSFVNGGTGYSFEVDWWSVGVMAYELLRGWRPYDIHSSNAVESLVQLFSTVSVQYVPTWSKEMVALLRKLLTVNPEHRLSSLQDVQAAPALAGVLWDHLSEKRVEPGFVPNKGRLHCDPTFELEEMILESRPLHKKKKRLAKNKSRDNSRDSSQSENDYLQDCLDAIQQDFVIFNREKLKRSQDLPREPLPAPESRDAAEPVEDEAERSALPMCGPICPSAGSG
ACVR1 (human), sequence (Q04771 whole entry, looked up): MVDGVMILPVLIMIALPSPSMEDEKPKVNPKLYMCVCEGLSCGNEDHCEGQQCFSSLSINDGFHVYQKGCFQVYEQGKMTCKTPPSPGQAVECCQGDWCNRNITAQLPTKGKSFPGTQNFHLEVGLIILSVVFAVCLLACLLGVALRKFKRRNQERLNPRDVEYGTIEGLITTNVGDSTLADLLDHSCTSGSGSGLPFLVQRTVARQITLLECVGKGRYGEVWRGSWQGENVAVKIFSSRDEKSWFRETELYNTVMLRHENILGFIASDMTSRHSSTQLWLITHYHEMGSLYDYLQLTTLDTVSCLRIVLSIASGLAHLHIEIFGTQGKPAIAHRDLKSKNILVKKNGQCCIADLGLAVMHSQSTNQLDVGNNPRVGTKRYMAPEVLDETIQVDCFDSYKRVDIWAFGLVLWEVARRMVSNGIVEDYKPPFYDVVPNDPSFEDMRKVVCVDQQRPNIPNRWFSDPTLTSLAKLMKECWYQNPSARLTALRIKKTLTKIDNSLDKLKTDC
AKT2 (human), sequence (P31751 whole entry, looked up): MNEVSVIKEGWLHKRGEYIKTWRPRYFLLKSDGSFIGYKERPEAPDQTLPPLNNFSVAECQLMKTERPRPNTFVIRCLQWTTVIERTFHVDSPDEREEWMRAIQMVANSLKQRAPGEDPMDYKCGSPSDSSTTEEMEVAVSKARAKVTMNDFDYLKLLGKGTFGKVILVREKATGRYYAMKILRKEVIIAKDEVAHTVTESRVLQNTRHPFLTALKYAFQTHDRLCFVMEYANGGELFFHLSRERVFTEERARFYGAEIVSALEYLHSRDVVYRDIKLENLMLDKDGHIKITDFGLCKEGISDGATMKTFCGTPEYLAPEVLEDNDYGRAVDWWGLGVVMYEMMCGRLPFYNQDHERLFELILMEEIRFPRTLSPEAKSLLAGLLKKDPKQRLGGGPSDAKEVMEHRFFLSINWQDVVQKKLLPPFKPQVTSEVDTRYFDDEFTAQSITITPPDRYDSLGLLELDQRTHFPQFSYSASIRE
TGFBR1 (human), sequence (P36897 whole entry, looked up): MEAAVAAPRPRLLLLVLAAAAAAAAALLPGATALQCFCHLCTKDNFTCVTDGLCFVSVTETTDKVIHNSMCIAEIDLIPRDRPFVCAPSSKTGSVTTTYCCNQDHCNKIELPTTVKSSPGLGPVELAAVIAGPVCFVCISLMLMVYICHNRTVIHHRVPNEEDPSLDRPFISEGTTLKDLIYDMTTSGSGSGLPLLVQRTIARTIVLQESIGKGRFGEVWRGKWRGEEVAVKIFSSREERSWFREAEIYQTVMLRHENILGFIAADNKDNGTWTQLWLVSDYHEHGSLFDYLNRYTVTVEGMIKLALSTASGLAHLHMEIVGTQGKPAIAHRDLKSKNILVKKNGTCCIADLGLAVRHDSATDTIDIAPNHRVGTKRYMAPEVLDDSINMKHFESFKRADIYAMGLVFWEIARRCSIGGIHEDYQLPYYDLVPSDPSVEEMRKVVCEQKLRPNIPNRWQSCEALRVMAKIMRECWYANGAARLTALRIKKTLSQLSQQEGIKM
PKMYT1 (human), sequence (Q99640 whole entry, looked up): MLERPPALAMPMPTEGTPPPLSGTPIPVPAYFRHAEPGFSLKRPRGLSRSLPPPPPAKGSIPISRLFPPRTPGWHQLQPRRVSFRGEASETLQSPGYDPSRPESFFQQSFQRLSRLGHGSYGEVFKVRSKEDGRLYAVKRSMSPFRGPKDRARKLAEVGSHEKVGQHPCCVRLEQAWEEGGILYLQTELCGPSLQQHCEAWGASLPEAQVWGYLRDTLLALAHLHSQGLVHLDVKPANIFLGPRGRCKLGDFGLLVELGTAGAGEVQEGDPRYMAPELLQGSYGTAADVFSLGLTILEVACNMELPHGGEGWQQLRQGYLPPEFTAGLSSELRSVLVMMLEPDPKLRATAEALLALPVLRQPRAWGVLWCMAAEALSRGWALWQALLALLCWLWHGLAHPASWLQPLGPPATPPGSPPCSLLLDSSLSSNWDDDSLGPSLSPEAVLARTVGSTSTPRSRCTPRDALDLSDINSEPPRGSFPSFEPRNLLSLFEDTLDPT
LCK (human), sequence (P06239 whole entry, looked up): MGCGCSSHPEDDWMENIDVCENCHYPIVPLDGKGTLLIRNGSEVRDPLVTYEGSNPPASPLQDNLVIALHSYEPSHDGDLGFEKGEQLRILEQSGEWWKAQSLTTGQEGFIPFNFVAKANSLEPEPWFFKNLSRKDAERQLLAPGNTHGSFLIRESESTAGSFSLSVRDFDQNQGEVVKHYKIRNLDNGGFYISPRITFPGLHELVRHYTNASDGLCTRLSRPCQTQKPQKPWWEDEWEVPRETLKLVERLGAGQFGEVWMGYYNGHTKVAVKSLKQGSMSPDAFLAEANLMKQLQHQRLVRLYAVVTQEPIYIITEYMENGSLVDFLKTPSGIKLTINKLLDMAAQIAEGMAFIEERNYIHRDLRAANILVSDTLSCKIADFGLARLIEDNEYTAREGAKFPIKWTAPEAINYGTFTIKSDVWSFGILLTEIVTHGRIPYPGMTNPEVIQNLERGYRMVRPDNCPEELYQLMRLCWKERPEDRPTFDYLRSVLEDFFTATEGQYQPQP
MYLK4 (human), sequence (Q86YV6 whole entry, looked up): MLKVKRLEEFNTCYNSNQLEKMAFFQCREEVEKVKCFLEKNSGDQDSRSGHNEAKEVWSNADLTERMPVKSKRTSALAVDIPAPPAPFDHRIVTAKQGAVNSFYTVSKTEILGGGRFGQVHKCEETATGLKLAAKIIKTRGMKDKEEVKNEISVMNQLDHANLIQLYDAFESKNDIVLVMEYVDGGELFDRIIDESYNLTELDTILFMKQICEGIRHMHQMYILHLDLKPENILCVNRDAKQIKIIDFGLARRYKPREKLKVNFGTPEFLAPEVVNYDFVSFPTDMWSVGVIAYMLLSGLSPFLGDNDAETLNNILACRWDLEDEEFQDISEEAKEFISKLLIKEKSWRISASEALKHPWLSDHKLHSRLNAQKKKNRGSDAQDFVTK
MAP3K7 (human), sequence (O43318 whole entry, looked up): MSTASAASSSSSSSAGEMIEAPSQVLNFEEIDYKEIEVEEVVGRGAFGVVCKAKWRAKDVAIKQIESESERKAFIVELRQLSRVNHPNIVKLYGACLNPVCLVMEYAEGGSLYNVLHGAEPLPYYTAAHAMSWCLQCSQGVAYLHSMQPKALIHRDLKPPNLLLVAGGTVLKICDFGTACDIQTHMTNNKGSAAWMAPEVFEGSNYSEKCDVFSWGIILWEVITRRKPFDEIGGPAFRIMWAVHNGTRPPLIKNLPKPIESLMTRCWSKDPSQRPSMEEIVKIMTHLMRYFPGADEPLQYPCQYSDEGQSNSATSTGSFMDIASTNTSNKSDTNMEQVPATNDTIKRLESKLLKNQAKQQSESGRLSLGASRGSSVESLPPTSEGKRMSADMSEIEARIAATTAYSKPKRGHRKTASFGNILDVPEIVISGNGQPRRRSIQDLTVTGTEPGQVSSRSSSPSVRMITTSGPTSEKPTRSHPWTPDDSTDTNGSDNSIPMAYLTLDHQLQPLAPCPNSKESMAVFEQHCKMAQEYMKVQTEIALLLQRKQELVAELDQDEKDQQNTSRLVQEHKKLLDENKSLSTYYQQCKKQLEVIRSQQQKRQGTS

Structure (SMILES) | kinase still bound, per cent of control (AAK1 (human)) [%] | kinase still bound, per cent of control (ACVR1 (human)) [%] | kinase still bound, per cent of control (AKT2 (human)) [%] | kinase still bound, per cent of control (AKT3 (human)) [%] | kinase still bound, per cent of control (AURKC (human)) [%] | kinase still bound, per cent of control (BMPR1B (human)) [%] | kinase still bound, per cent of control (CAMK2A (human)) [%] | kinase still bound, per cent of control (CAMKK2 (human)) [%] | kinase still bound, per cent of control (CDK15 (human)) [%] | kinase still bound, per cent of control (CDK19 (human)) [%] | kinase still bound, per cent of control (CLK2 (human)) [%] | kinase still bound, per cent of control (EPHA6 (human)) [%] | kinase still bound, per cent of control (EPHB4 (human)) [%] | kinase still bound, per cent of control (FGFR4 (human)) [%] | kinase still bound, per cent of control (GSK3A (human)) [%] | kinase still bound, per cent of control (IKBKB (human)) [%] | kinase still bound, per cent of control (LCK (human)) [%] | kinase still bound, per cent of control (MAP3K7 (human)) [%] | kinase still bound, per cent of control (MAP3K9 (human)) [%] | kinase still bound, per cent of control (MAPK10 (human)) [%] | further results
CC[C@@H]1C(=O)N(C)c2cnc(Nc3ccc(C(=O)NC4CCN(C)CC4)cc3OC)nc2N1C1CCCC1 | 100 | 100 | 100 | 100 | 100 | 100 | 26 | 1.9 | 100 | 100 | 5.4 | 100 | 100 | 100 | 100 | 100 | 100 | 100 | 100 | 100 | kinase still bound, per cent of control (MERTK (human)): 100%; kinase still bound, per cent of control (MYLK4 (human)): 100%; kinase still bound, per cent of control (MYO3A (human)): 100%; kinase still bound, per cent of control (NEK2 (human)): 17%; kinase still bound, per cent of control (NLK (human)): 100%; kinase still bound, per cent of control (NUAK2 (human)): 100%; kinase still bound, per cent of control (PIM3 (human)): 100%; kinase still bound, per cent of control (PIP5K1A (human)): 100%; kinase still bound, per cent of control (PKMYT1 (human)): 100%; kinase still bound, per cent of control (PTK2 (human)): 2.4%; kinase still bound, per cent of control (RPS6KA2 KD1 (human)): 100%; kinase still bound, per cent of control (SIK1 (human)): 100%; kinase still bound, per cent of control (STK24 (human)): 100%; kinase still bound, per cent of control (STK32C (human)): 100%; kinase still bound, per cent of control (STK35 (human)): 100%; kinase still bound, per cent of control (STK4 (human)): 100%; kinase still bound, per cent of control (TAOK3 (human)): 100%; kinase still bound, per cent of control (TGFBR1 (human)): 100%
CCOc1cc2ncc(C#N)c(Nc3ccc(OCc4ccccn4)c(Cl)c3)c2cc1NC(=O)/C=C/CN(C)C | 68 | 100 | 99 | 100 | 95 | 81 | 90 | 89 | 98 | 100 | 100 | 99 | 91 | 100 | 97 | 100 | 3.7 | 90 | 84 | 27 | kinase still bound, per cent of control (MERTK (human)): 8.4%; kinase still bound, per cent of control (MYLK4 (human)): 86%; kinase still bound, per cent of control (MYO3A (human)): 98%; kinase still bound, per cent of control (NEK2 (human)): 12%; kinase still bound, per cent of control (NLK (human)): 95%; kinase still bound, per cent of control (NUAK2 (human)): 8.8%; kinase still bound, per cent of control (PIM3 (human)): 100%; kinase still bound, per cent of control (PIP5K1A (human)): 100%; kinase still bound, per cent of control (PKMYT1 (human)): 84%; kinase still bound, per cent of control (PTK2 (human)): 65%; kinase still bound, per cent of control (RPS6KA2 KD1 (human)): 88%; kinase still bound, per cent of control (SIK1 (human)): 31%; kinase still bound, per cent of control (STK24 (human)): 0.35%; kinase still bound, per cent of control (STK32C (human)): 100%; kinase still bound, per cent of control (STK4 (human)): 17%; kinase still bound, per cent of control (TAOK3 (human)): 75%; kinase still bound, per cent of control (TGFBR1 (human)): 100%
O=C(O)c1ccc(Nc2ncc3c(n2)-c2ccc(Cl)cc2C(c2c(F)cccc2F)=NC3)cc1 | 90 | 100 | 100 | 100 | 20 | 86 | 69 | 72 | 100 | 96 | 7.4 | 14 | 11 | 58 | 100 | 100 | 1.6 | 80 | 70 | 100 | kinase still bound, per cent of control (CSNK1G2 (human)): 66%; kinase still bound, per cent of control (FES (human)): 100%; kinase still bound, per cent of control (MERTK (human)): 3%; kinase still bound, per cent of control (MYLK4 (human)): 89%; kinase still bound, per cent of control (MYO3A (human)): 80%; kinase still bound, per cent of control (NEK2 (human)): 73%; kinase still bound, per cent of control (NLK (human)): 82%; kinase still bound, per cent of control (NUAK2 (human)): 85%; kinase still bound, per cent of control (PIM3 (human)): 42%; kinase still bound, per cent of control (PIP5K1A (human)): 100%; kinase still bound, per cent of control (PKMYT1 (human)): 65%; kinase still bound, per cent of control (PTK2 (human)): 23%; kinase still bound, per cent of control (RPS6KA2 KD1 (human)): 100%; kinase still bound, per cent of control (SIK1 (human)): 5.7%; kinase still bound, per cent of control (STK24 (human)): 76%; kinase still bound, per cent of control (STK32C (human)): 50%; kinase still bound, per cent of control (STK4 (human)): 85%; kinase still bound, per cent of control (TAOK3 (human)): 95%; kinase still bound, per cent of control (TGFBR1 (human)): 98%
